From PubChem BioAssay (NCI)
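The compound was tested at five concentrations on cells cultured in 96-well plates, with a 48-hour exposure period. At the GI50, growth is halved. The concentration for full growth arrest is given as TGI.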

How the values were obtained:
Test in all cases: NCI-60 cell line screen, 48 h
OVCAR-5 ovarian = tested on: OVCAR-5 ovarian
SK-MEL-2 melanoma = tested on: SK-MEL-2 melanoma
NCI-H460 lung = tested on: NCI-H460 lung
SF-295 CNS = tested on: SF-295 CNS
SR leukemia = tested on: SR leukemia
HS 578T breast = tested on: HS 578T breast
HOP-62 NSCLC = tested on: HOP-62 NSCLC
LOX IMVI melanoma = tested on: LOX IMVI melanoma
M14 melanoma = tested on: M14 melanoma
SNB-75 CNS = tested on: SNB-75 CNS

Row | Compound | TGI (OVCAR-5 ovarian) [µM] | TGI (SK-MEL-2 melanoma) [µM] | TGI (NCI-H460 lung) [µM] | TGI (SF-295 CNS) [µM] | TGI (SR leukemia) [µM] | TGI (HS 578T breast) [µM] | TGI (HOP-62 NSCLC) [µM] | TGI (LOX IMVI melanoma) [µM] | TGI (M14 melanoma) [µM] | TGI (SNB-75 CNS) [µM] | GI50 (OVCAR-5 ovarian) [µM] | GI50 (SK-MEL-2 melanoma) [µM] | GI50 (NCI-H460 lung) [µM] | GI50 (SF-295 CNS) [µM] | GI50 (SR leukemia) [µM] | GI50 (HS 578T breast) [µM] | GI50 (HOP-62 NSCLC) [µM] | GI50 (LOX IMVI melanoma) [µM] | GI50 (M14 melanoma) [µM] | GI50 (SNB-75 CNS) [µM]
1 | O=c1c2sc(=S)n(-c3ccc(F)cc3)c2ncn1/N=C/c1ccc(F)cc1F | > 100 | 85.6 | > 100 | 65.8 | > 100 | 76.3 | 30.7 | > 100 | 67.4 | 32.8 |  |  |  |  |  |  |  |  |  | 
2 | COc1ccc2c(c1)/C(=C\c1c(Cl)nc3sc(C)cn13)C(=O)N2 | 25.4 | 8.41 | 12.3 | 11 | 15.6 | 9.6 | 19.4 | 18.1 | 8.89 | 17.1 |  |  |  |  |  |  |  |  |  | 
3 | NC1=NCC(CN2CCOCC2)O1 (centres undefined) | > 100 | > 100 | > 100 | > 100 | > 100 | > 100 | > 100 | > 100 | > 100 | > 100 |  |  |  |  |  |  |  |  |  | 
4 | Cc1nc(N)c(N2CCN([N+](=O)[O-])CC2)c(=O)[nH]1 | > 100 | > 100 | > 100 | > 100 | > 100 | > 100 | > 100 | > 100 | > 100 | > 100 |  |  |  |  |  |  |  |  |  | 
5 | CO[C@H]1/C=C(/C)CCC[C@H](C)[C@H](O)[C@@H](C)C(=O)C(C)(C)[C@@H](O)CC(=O)O[C@@H]1/C(C)=C/c1csc(C)n1 | > 100 |  | > 100 | 0.279 | > 58.2 | > 100 | > 100 | > 100 | > 100 | 0.0319 | 0.0436 | 0.0186 | < 0.01 | < 0.0168 | 0.0151 | 0.0234 | 0.0414 | 0.0162 | 0.0218 | < 0.01
6 | C=CCSc1nnc2cc(CN3CCCC3)c(-c3ccc(Cl)cc3)nn12 | 41.5 | 34.5 | 36.1 | 53.7 | > 100 | > 100 | 45.4 | 48.1 | 34.7 | 39.2 |  |  |  |  |  |  |  |  |  | 
7 | NS(=O)(=O)c1cc(Cl)c(NC(=S)NC(=O)Nc2ccc(Cl)c(Cl)c2)c(Cl)c1 | > 100 | 90.6 | > 100 | > 100 | > 100 | > 100 | > 100 | > 100 | > 100 | > 100 |  |  |  |  |  |  |  |  |  | 
8 | CSC(=S)N(C)C | > 100 | > 100 | > 100 | > 100 | > 100 | > 100 | > 100 | > 100 | > 100 | > 100 |  |  |  |  |  |  |  |  |  | 
9 | COc1cccc2c(=O)oc(-c3ccc(C(C)(C)C)cc3)nc12 | > 100 | > 100 | > 100 | > 100 | 63.1 | > 100 | > 100 | 53.9 | > 100 | > 100 |  |  |  |  |  |  |  |  |  | 
10 | N=C(N)SCc1ccc2c(c1)Sc1ccccc1O2 | 25.3 | 15.6 | 21.5 | 24.2 | > 31.6 | 16.5 | 34.1 | 60.4 | 7.55 | 18.2 |  |  |  |  |  |  |  |  |  | 
11 | O=C1NCC2(CCN(CCCC3(c4ccc(F)cc4)OCCO3)CC2)N1c1ccccc1 | > 100 | > 100 | > 100 | > 100 | > 100 | > 100 | > 100 | > 100 | > 100 | > 100 |  |  |  |  |  |  |  |  |  | 
